Assay results reported in patent publication US8658794B2, “8-methyl-1-phenyl-imidazol[1,5-a]pyrazine compounds as Lck inhibitors and uses thereof” (Merck Sharp & Dohme B.V., priority 2010, dated 2014).

The compounds below were run against T1, N-terminal His6-tagged recombinant full-length human Lck (Homo sapiens, UniProt P06239) (assay: Lck IMAP assay). Conditions: ATP 6 μM (KM,ATP), enzyme pre-incubated with compounds for 60 minutes, values given as bins.
T1 construct: N-terminal His6-tagged recombinant full-length human Lck; His6 (N); purchased Millipore
Assay type: biochemical
Source text: Inhibition of kinase activity can be measured using the Immobilized Metal Assay for Phosphochemicals (IMAP) assay. IMAP is a homogeneous fluorescence polarization (FP) assay based on affinity capture of phosphorylated peptide substrates. IMAP uses fluorescein-labeled peptide substrates that, upon phosphorylation by a protein kinase, bind to so-called IMAP nanoparticles, which are derivatized with trivalent metal complexes. Binding causes a change in the rate of the molecular motion of the peptide, and results in an increase in the FP value observed for the fluorescein label attached to the substrate peptide (Gaudet et al. A homogeneous fluorescence polarization assay adaptable for a range of protein serine/threonine and tyrosine kinases. J. Biomol. Screen (2003) 8, 164-175).
Enzyme used was N-terminal His6-tagged recombinant full-length human Lck from Millipore. Phosphorylation substrate was a fluorescein-labeled peptide (5FAM-KVEKIGEGTYGVV—NH2) derived from p34cdc2 from Molecular Devices. Enzymes, substrate and ATP were diluted in Kinase Reaction buffer (10 mM Tris-HCl, 10 mM MgCl2, 0.01% Tween-20, 0.05% NaN3 pH 7.2, 1 mM DTT (dithiotreitol). The final volume at the kinase reaction step of the assay in the 384-well plate was 20 μl. Final amount of enzyme in the reaction was 0.1 U/ml. Enzyme was pre-incubated with compounds diluted in 1% DMSO (dimethylsulfoxide) for 60 minutes at room temperature in the dark. Subsequently, peptide substrate to a final concentration of 100 nM, and ATP to a final concentration of 6 μM were added and the mix was incubated for 120 minutes at room temperature in the dark. IMAP progressive binding buffer (75% 1× buffer A, 25% 1× buffer B with 1:600 Progressive Binding Reagent; Molecular Devices) was added, followed by an incubation step of 60 minutes at room temperature in the dark. Finally, the FP signal was read on an Envision Multilabel reader (Perkin Elmer).
All biochemical assays were run at KM,ATP of the enzyme using non-saturated conditions, meaning that during the incubation time it was assured that the signal increase was linear with time. For all biochemical assays a reference standard was used on each plate.
Ten point serial dilutions using a √10 dilution factor were used for dose response testing of compounds. Starting concentration was 10^-6M for Lck IMAP assays. Dose-response curves were run as two experiments on duplicate plates (N=1; n=2). All data was normalized to percentage effect based on maximum (Max) and minimum (Min) control values. On every 384 assay plate 16 wells were used as minimum wells (wells with ATP, 0% effect) and 16 wells were used as maximum wells (wells without ATP, 100% effect). 16 wells were used for measuring the background signal, obtained from a kinase reaction containing all constituents except the labeled peptide substrate. Percentage effect was plotted against log dilution concentration of compound to obtain sigmoid dose response curves. pIC50 values were calculated using ActivityBase.

T1 sequence (P06239 whole entry): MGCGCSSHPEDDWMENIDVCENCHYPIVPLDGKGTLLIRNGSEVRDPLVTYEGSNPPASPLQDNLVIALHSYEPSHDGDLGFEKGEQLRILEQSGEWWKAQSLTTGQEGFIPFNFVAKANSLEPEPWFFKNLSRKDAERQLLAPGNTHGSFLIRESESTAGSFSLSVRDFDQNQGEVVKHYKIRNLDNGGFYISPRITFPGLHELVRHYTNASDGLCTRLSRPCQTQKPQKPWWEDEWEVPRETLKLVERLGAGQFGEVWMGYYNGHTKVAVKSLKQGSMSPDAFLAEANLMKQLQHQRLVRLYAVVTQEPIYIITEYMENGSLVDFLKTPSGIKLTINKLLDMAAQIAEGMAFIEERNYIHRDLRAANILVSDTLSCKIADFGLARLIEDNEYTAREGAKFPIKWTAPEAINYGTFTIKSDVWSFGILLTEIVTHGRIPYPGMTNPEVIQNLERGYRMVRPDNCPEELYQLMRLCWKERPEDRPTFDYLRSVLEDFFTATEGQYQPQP

SMILES | IC50 [nM]
COc1cc(-c2nc([C@H]3CC[C@@H](N4CCN(C)CC4)CC3)n3ccnc(C)c23)ccc1NC(=O)c1cc2c(OC)cccc2n1C [Example 8, 4-Methoxy-N-(2-methoxy-4-(8-methyl-3-((cis)-4-(4-methylpiperazin-1-yl)cyclohexyl)imidazo[1,5-a]pyrazin-1-yl)phenyl)-1-methyl-1H-indole-2-carboxamide] | ≤ 10
COc1cc(-c2nc(C3CCOCC3)n3ccnc(C)c23)c(F)cc1NC(=O)OC(C)CCCO (centres unmarked) [Example 47, 5-Hydroxypentan-2-yl 5-fluoro-2-methoxy-4-(8-methyl-3-(tetrahydro-2h-pyran-4-yl)imidazo[1,5-a]pyrazin-1-yl)phenylcarbamate] | 100 to 1000
CNC[C@H]1CC[C@H](c2nc(-c3ccc(NC(=O)c4cc5c(OC)cccc5n4C)c(OC)c3)c3c(C)nccn32)CC1 [Example 63, 4-Methoxy-N-(2-methoxy-4-(8-methyl-3-((trans)-4-((methylamino)methyl)cyclohexyl)imidazo[1,5-a]pyrazin-1-yl)phenyl)-1-methyl-1H-indole-2-carboxamide] | ≤ 10
COc1cccc2c1cc(C(=O)Nc1ccc(-c3nc([C@H]4CC[C@H](N5CCN(C)CC5)CC4)n4ccnc(C)c34)cc1O)n2C [Example 62, N-(2-hydroxy-4-(8-methyl-3-((trans)-4-(4-methylpiperazin-1-yl)cyclohexyl)imidazo[1,5-a]pyrazin-1-yl)phenyl)-4-methoxy-1-methyl-1H-indole-2-carboxamide] | ≤ 10
COc1cc(-c2nc(C3CCN(CC(=O)N(C)C)CC3)n3ccnc(C)c23)ccc1NC(=O)c1cc2ccccc2n1C [Example 18, N-(4-(3-(1-(2-(dimethylamino)-2-oxoethyl)piperidin-4-yl)-8-methylimidazo[1,5-a]pyrazin-1-yl)-2-methoxyphenyl)-1-methyl-1H-indole-2-carboxamide] | ≤ 10
COc1cc(-c2nc([C@@H]3CCN(C(=O)CO)C3)n3ccnc(C)c23)ccc1NC(=O)c1cc2c(OC)cccc2n1C [Example 53, (R)—N-(4-(3-(1-(2-hydroxyacetyl)pyrrolidin-3-yl)-8-methylimidazo[1,5-a]pyrazin-1-yl)-2-methoxyphenyl)-4-methoxy-1-methyl-1H-indole-2-carboxamide] | ≤ 10
COc1cc(-c2nc([C@H]3CC[C@H](N(C)C)CC3)n3ccnc(C)c23)ccc1NC(=O)c1cc2c(OC)cccc2n1C [Example 26b, N-(4-(3-((trans)-4-(dimethylamino)cyclohexyl)-8-methylimidazo[1,5-a]pyrazin-1-yl)-2-methoxyphenyl)-4-methoxy-1-methyl-1H-indole-2-carboxamide] | ≤ 10
CCC[C@H](C)OC(=O)Nc1ccc(-c2nc([C@H]3CCN(C(=O)COC)C3)n3ccnc(C)c23)cc1OC [Example 50, (S)-pentan-2-yl 2-methoxy-4-(3-((S)-1-(2-methoxyacetyl)pyrrolidin-3-yl)-8-methylimidazo[1,5-a]pyrazin-1-yl)phenylcarbamate] | ≤ 10
CNC[C@]1(O)CC[C@H](c2nc(-c3ccc(NC(=O)c4cc5c(OC)cccc5n4C)c(OC)c3)c3c(C)nccn32)CC1 [Example 72, N-(4-(3-((trans)-4-hydroxy-4-((methylamino)methyl)cyclohexyl)-8-methylimidazo[1,5-a]pyrazin-1-yl)-2-methoxyphenyl)-4-methoxy-1-methyl-1H-indole-2-carboxamide] | ≤ 10
CCC[C@H](C)OC(=O)Nc1ccc(-c2nc([C@H]3CC[C@H](N4CCN(C)CC4)CC3)n3ccnc(C)c23)cc1OC [Example 33a, (S)-pentan-2-yl 2-methoxy-4-(8-methyl-3-((trans)-4-(4-methylpiperazin-1-yl)cyclohexyl)imidazo[1,5-a]pyrazin-1-yl)phenylcarbamate] | ≤ 10
CCC[C@H](C)OC(=O)Nc1ccc(-c2nc([C@H]3CC[C@@H](N4CC(F)(F)C4)CC3)n3ccnc(C)c23)cc1OC [Example 26g, (S)-pentan-2-yl 4-(3-((cis)-4-(3,3-difluoroazetidin-1-yl)cyclohexyl)-8-methylimidazo[1,5-a]pyrazin-1-yl)-2-methoxyphenylcarbamate] | ≤ 10
COc1cc(-c2nc(C3CCNCC3)n3ccnc(C)c23)ccc1NC(=O)c1cc2c(OC)cccc2n1C [Example 17, 4-Methoxy-N-(2-methoxy-4-(8-methyl-3-(piperidin-4-yl)imidazo[1,5-a]pyrazin-1-yl)phenyl)-1-methyl-1H-indole-2-carboxamide] | ≤ 10
COc1cc(-c2nc(Cn3ccnc3)n3ccnc(C)c23)ccc1NC(=O)c1cc2c(OC)cccc2n1C [Example 15, N-(4-(3-((1H-imidazol-1-yl)methyl)-8-methylimidazo[1,5-a]pyrazin-1-yl)-2-methoxyphenyl)-4-methoxy-1-methyl-1H-indole-2-carboxamide] | 100 to 1000
CCC[C@H](C)OC(=O)Nc1ccc(-c2nc([C@H]3CC[C@H](NCCOC)CC3)n3ccnc(C)c23)cc1OC [Example 11, (S)-Pentan-2-yl 2-methoxy-4-(3-((trans)-4-(2-methoxyethylamino)cyclohexyl)-8-methyl-imidazo[1,5-a]pyrazin-1-yl)phenylcarbamate] | ≤ 10
COc1cc(-c2nc([C@H]3CC[C@@H](N(C)C)CC3)n3ccnc(C)c23)ccc1NC(=O)c1cc2c(OC)cccc2n1C [Example 26e, N-(4-(3-((cis)-4-(dimethylamino)cyclohexyl)-8-methylimidazo[1,5-a]pyrazin-1-yl)-2-methoxyphenyl)-4-methoxy-1-methyl-1H-indole-2-carboxamide] | ≤ 10
COc1cc(-c2nc(C3(C)COC3)n3ccnc(C)c23)ccc1NC(=O)c1cc2c(OC)cccc2n1C [Example 13, 4-Methoxy-N-(2-methoxy-4-(8-methyl-3-(3-methyloxetan-3-yl)imidazo[1,5-a]pyrazin-1-yl)phenyl)-1-methyl-1H-indole-2-carboxamide] | ≤ 10
CCC[C@H](C)OC(=O)Nc1ccc(-c2nc([C@H]3C[C@H](N4CCN(C)CC4)C3)n3ccnc(C)c23)cc1OC [Example 27, (S)-Pentan-2-yl 2-methoxy-4-(8-methyl-3-((1r,3r)-3-(4-methylpiperazin-1-yl)cyclobutyl)imidazo[1,5-a]pyrazin-1-yl)phenylcarbamate] | ≤ 10
COc1cc(-c2nc(N3CCN(C)CC3)n3ccnc(C)c23)ccc1NC(=O)c1cc2ccccc2n1C [Example 23, N-(2-methoxy-4-(8-methyl-3-(4-methylpiperazin-1-yl)imidazo[1,5-a]pyrazin-1-yl)phenyl)-1-methyl-1H-indole-2-carboxamide] | ≤ 10
CCC[C@H](C)OC(=O)Nc1ccc(-c2nc([C@@H]3CCN(C(=O)CN(C)C)C3)n3ccnc(C)c23)cc1OC [Example 4, (S)-pentan-2-yl 4-(3-((R)-1-(2-(dimethylamino)acetyl)pyrrolidin-3-yl)-8-methylimidazo[1,5-a]pyrazin-1-yl)-2-methoxyphenylcarbamate] | ≤ 10
CCC[C@H](C)OC(=O)Nc1ccc(-c2nc(N3CCN(C(C)=O)CC3)n3ccnc(C)c23)cc1OC [Example 31, (S)-Pentan-2-yl 4-(3-(4-acetylpiperazin-1-yl)-8-methylimidazo[1,5-a]pyrazin-1-yl)-2-methoxyphenylcarbamate] | ≤ 10
